Values of other authors in patent US20190070181A1, “FORMULATION OF TICAGRELOR OR PHARMACEUTICALLY ACCEPTABLE SALT THEREOF” (Jiangsu Hengrui Medicine Co., Ltd., priority 2017, published 2019).

What was measured:
[1] = not given; remark: listed apart in the source

Compound: CCCSc1nc(N[C@@H]2C[C@H]2c2ccc(F)c(F)c2)c2nnn([C@@H]3C[C@H](OCCO)[C@@H](O)[C@H]3O)c2n1 [ticagrelor, (1S,2S,3R,5S)-3-[7-{[(1R,2S)-2-(3,4-difluorophenyl)cyclopropyl]amino}-5-(propylthio)-3H-[1,2,3]-triazolo[4,5-d]pyrimidin-3-yl]-5-(2-hydroxyethoxy)cyclopentane-1,2-diol]
- time the IPA effect can be maintained (platelet aggregation; 180 mg loading dose): 2 to 8 h
- IPA maximum (platelet aggregation; 2-4 hours after 180 mg loading dose): 89%
- mean inhibition of platelet aggregation (IPA) (platelet aggregation; 0.5 hour after 180 mg loading dose): 41%
- average t1/2 (in vivo): about 7 hours
- dose up to which the pharmacokinetics is linear (in vivo): up to 1260 mg
- median tmax (oral administration): about 1.5 hours
- average recovery of the radiation in feces (radiolabeled ticagrelor, feces): 58%
- average recovery of the radiation (radiolabeled ticagrelor, total): about 84%
- average recovery of the radiation in urine (radiolabeled ticagrelor, urine): 26%
- solubility in water [1]: almost insoluble in water

Compound: CCCSc1nc(N[C@@H]2C[C@H]2c2ccc(F)c(F)c2)c2nnn([C@@H]3C[C@H](O)[C@@H](O)[C@H]3O)c2n1 [AR-C124910XX]
- average t1/2 (in vivo): about 9 hours
